Experimental data from patent publication US10442778B2, “N1-phenylpropane-1,2-diamine compounds with selective activity in voltage-gated sodium channels” (Merck Sharp & Dohme Corp., priority 2016, dated 2019).

Tests used:
[1] = biological target: T1, human Nav1.5 channels stably expressed in HEK 293 cells (Homo sapiens, UniProt Q14524); test: IonWorks Quattro automated patch-clamp, inactivated state block of Nav1.5 (selectivity); type: cell-based; settings: IonWorks measurement, both channels in HEK 293 cells
T1 construct: expressed in transfected cells; host or cells: HEK 293
T1 sequence (Q14524 whole entry): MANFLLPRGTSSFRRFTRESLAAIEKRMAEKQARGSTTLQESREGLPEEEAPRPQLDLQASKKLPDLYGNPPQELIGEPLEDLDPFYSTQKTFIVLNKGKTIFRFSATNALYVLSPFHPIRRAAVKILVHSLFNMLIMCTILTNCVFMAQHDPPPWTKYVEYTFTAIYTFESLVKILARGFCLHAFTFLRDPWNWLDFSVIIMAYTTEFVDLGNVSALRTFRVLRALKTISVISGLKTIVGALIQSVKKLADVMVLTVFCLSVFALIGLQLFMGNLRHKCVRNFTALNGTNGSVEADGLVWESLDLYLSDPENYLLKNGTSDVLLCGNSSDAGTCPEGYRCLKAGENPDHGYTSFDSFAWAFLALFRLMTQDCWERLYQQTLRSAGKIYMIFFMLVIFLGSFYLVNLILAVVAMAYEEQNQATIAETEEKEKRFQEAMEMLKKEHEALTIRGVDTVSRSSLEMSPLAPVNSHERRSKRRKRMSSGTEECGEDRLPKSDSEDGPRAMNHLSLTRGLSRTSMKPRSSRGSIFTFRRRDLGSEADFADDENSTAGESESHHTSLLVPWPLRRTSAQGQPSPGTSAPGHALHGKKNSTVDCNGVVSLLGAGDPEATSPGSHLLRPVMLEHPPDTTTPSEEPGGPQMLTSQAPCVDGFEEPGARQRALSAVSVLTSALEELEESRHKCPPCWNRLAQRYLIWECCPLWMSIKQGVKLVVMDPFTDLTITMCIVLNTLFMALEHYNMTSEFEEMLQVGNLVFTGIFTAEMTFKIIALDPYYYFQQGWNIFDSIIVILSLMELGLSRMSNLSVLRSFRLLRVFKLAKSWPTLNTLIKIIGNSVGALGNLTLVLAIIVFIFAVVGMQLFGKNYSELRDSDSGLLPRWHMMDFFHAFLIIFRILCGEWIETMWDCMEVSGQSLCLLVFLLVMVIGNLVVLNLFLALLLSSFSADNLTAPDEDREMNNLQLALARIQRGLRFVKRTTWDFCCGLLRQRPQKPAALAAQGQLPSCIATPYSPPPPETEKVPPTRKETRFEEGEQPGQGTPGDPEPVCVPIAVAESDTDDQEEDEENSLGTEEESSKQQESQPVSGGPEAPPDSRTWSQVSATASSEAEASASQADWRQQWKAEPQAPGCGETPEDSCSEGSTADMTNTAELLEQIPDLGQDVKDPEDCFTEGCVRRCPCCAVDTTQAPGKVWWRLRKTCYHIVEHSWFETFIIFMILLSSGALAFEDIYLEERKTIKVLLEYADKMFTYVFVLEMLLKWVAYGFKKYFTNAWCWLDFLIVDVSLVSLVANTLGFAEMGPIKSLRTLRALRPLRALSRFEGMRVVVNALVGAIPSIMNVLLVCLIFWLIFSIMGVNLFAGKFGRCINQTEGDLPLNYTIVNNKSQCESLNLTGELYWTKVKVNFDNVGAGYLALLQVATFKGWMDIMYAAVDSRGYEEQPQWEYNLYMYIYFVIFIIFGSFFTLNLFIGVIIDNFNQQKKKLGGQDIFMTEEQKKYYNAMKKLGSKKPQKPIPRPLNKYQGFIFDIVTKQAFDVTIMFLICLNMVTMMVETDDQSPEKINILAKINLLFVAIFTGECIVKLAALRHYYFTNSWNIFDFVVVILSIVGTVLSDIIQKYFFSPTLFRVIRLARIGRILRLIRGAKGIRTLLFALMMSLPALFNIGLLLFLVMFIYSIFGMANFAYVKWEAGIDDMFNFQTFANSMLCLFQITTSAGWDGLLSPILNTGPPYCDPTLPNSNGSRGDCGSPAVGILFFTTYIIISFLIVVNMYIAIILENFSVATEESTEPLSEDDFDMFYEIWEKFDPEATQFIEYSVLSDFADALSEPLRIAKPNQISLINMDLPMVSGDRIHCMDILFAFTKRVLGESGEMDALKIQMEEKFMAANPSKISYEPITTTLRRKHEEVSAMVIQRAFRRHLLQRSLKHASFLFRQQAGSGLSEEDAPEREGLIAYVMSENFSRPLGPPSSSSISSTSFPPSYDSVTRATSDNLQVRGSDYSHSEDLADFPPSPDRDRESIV
Description: (§1) Compounds were tested on human Nav1.7 and Nav1.5 channels stably expressed in HEK 293 cells. […] Cells were sealed on a planar substrate using the Population Patch Plate (PPC) technology. Electrical access was obtained using both nystatin and amphotericin. A double-pulse protocol was used for the determination of IC50 values for inactivated state block. Nav1.7 and Nav1.5 expressing cells were voltage clamped at −100 mV and −110 mV, respectively. A depolarizing prepulse to −10 mV (Nav1.7) or −30 mV (Nav1.5) for 1000 ms followed by a 10 ms repolarization to −100 mV (Nav1.7) or −110 mV (Nav1.5) was given to generate fractional channel inactivation of ˜50%, followed by a 10 ms test pulse to −10 mV (Nav1.7) or −30 mV (Nav1.5) to measure peak current in control conditions and after compound addition. The following recording solutions were used (mM). External: 150 NaCl, 2 CaCl2, 5 KCl, 1 Mg Cl2, 10 HEPES, 12 Dextrose; internal: 120 CsF, 30 CsCl, 10 EGTA, 5 HEPES, 5 NaF, 2 MgCl2.
(§2) For all electrophysiology experiments, offline analysis was used to determine percent inhibition as a function of drug concentration. IC50 values were determined by fitting to the Hill equation.

[2] = biological target: T2, human Nav1.7 channels stably expressed in HEK 293 cells (Homo sapiens, UniProt Q15858); test: IonWorks Quattro automated patch-clamp, inactivated state block of Nav1.7; type: cell-based; settings: double-pulse protocol, read-out: potency for the Nav 1.7 sodium ion channel (as measured by IonWorks)
T2 construct: expressed in transfected cells; host or cells: HEK 293
T2 sequence (Q15858 whole entry): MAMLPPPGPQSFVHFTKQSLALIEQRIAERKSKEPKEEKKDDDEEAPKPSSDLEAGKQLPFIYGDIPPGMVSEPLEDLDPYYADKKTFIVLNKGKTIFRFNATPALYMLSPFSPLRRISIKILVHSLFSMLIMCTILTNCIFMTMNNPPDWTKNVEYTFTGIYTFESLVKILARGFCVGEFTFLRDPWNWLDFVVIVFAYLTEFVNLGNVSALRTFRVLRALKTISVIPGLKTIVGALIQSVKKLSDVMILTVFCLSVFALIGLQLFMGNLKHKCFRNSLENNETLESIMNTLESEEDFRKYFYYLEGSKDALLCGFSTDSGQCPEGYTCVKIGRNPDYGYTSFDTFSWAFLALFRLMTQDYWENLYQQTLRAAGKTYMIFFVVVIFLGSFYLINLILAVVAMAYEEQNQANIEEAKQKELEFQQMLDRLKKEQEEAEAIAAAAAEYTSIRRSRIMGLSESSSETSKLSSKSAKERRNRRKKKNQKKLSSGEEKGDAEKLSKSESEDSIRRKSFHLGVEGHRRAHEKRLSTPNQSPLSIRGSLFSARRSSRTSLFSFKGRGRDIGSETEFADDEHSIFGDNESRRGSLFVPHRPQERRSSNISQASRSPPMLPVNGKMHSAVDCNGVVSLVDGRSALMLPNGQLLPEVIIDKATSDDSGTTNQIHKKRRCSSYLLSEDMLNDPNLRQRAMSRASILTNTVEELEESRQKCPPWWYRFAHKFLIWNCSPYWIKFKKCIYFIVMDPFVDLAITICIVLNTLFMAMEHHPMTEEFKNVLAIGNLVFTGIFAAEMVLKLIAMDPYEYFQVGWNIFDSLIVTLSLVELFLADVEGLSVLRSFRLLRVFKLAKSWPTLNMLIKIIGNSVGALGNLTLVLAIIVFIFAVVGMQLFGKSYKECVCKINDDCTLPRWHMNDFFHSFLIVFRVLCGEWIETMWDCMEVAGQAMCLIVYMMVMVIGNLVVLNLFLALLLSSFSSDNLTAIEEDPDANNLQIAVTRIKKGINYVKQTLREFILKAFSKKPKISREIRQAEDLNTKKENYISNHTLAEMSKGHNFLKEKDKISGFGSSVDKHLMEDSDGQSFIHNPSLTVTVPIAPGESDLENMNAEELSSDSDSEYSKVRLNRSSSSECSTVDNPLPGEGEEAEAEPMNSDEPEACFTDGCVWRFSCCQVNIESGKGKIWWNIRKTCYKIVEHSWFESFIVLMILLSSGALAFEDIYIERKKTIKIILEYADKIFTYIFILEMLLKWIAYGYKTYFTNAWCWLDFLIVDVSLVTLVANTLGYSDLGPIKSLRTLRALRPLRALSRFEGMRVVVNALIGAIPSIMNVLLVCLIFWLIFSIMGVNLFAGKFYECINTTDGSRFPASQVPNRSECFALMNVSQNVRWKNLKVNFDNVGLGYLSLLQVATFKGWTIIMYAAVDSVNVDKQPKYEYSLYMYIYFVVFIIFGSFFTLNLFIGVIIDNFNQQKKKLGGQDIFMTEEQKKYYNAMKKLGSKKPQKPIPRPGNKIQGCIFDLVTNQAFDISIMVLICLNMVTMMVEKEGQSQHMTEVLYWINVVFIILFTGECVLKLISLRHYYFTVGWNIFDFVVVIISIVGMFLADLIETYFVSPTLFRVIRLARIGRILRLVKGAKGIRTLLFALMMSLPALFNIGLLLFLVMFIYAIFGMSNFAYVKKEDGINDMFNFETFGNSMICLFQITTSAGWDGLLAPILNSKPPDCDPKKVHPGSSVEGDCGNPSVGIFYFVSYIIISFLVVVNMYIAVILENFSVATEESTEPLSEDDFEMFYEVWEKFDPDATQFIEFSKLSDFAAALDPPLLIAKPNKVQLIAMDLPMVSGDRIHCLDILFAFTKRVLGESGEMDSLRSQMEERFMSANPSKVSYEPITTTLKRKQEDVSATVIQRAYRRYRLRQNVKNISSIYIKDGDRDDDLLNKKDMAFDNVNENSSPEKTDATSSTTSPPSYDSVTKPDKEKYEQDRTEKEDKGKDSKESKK
Description: as §1, §2

| IC50 [2] [nM] | Structure (SMILES) | ratio of Nav1.7 potency:Nav 1.5 potency [1] |
| --- | --- | --- |
| 850 | CN[C@H](CNc1cc(F)c(S(=O)(=O)Nc2ncc(F)s2)cc1Cl)CC1CC1 [Ex2-18, (S)-5-chloro-4-((3-cyclopropyl-2-(methylamino)propyl)amino)-2-fluoro-N-(5-fluorothiazol-2-yl)-benzenesulfonamide] | > 39 |
| 1000 | CN[C@H](CNc1cc(F)c(S(=O)(=O)Nc2ncc(F)s2)cc1Cl)CC1CC1(F)F (stereo partly drawn) [Ex2-22, 5-chloro-4-(((2S)-3-(2,2-difluorocyclopropyl)-2-(methylamino)propyl)amino)-2-fluoro-N-(5-fluorothiazol-2-yl)-benzenesulfonamide] | > 23 |
| 1030 | CN[C@H](CNc1cc(F)c(S(=O)(=O)Nc2ncc(F)s2)cc1Cl)CC1CCC1 [Ex2-12, (S)-5-chloro-4-((3-cyclobutyl-2-(methylamino)propyl)amino)-2-fluoro-N-(5-fluorothiazol-2-yl)benzenesulfonamide] | > 32 |
| 160 | CN[C@H](CNc1cc(F)c(S(=O)(=O)Nc2nccs2)cc1Cl)Cc1cc(F)cc(F)c1 [Ex1-30, (S)-5-chloro-4-((3-(3,5-difluorophenyl)-2-(methyl-amino)-propyl)amino)-2-fluoro-N-(thiazol-2-yl)-benzenesulfonamide] | > 206 |
| 340 | CN[C@H](CNc1cc(F)c(S(=O)(=O)Nc2ncc(F)s2)cc1Cl)CC1(C)CC1 [Ex6-10, (S)-5-chloro-2-fluoro-N-(5-fluorothiazol-2-yl)-4-((2-(methylamino)-3-(1-methylcyclopropyl)propyl)amino)benzenesulfonamide] | > 68 |
| 120 | CN[C@H](CNc1cc(F)c(S(=O)(=O)Nc2nccs2)cc1Cl)CC1(C(F)(F)F)CC1 [Ex2-16, (S)-5-chloro-2-fluoro-4-((2-(methylamino)-3-(1-(trifluoromethyl)cyclopropyl)-propyl)amino)-N-(thiazol-2-yl)-benzenesulfonamide] | > 275 |
| 2000 | CN[C@H](CNc1cc(F)c(S(=O)(=O)Nc2ncc(F)s2)cc1Cl)CC1(CF)CC1 (single isomer, unassigned) [Ex5-4] | > 14 |
| 41 | CCCC[C@@H](CNc1cc(F)c(S(=O)(=O)Nc2ncc(F)s2)cc1Cl)NCCC [Ex7-5, (S)-5-chloro-2-fluoro-N-(5-fluorothiazol-2-yl)-4-((2-(propylainino)hexyl)amino) benzenesulfonamide] | > 805 |
| 15 | CN[C@H](CNc1cc(F)c(S(=O)(=O)Nc2nccs2)cc1Cl)CC1CCCCC1 [Ex1-18, (S)-5-chloro-4-((3-cyclohexyl-2-(methylamino)propyl)amino)-2-fluoro-N-(thiazol-2-yl)benzenesulfonamide] | > 2200 |
| 280 | CN[C@H](CNc1cc(F)c(S(=O)(=O)Nc2nccs2)cc1Cl)Cc1ccc(C)cc1 [Ex1-20, (S)-5-chloro-2-fluoro-4-((2-(methylamino)-3-(p-tolyl)propyl)amino)-N-(thiazol-2-yl)-benzenesulfonamide] | > 118 |
| 32 | CN[C@H](CNc1cc(F)c(S(=O)(=O)Nc2nccs2)cc1Cl)Cc1cccc(F)c1 [Ex1-28, (S)-5-chloro-2-fluoro-4-((3-(3-fluorophenyl)-2-(methylamino)-propyl)-amino)-N-(thiazol-2-yl)-benzenesulfonamide] | > 1031 |
| 310 | CN[C@H](CNc1cc(F)c(S(=O)(=O)Nc2nccs2)cc1Cl)Cc1ccccc1F [Ex1-29, (S)-5-chloro-2-fluoro-4-((3-(2-fluorophenyl)-2-(methylamino)-propyl)-amino)-N-(thiazol-2-yl)-benzenesulfonamide] | > 106 |

| Structure (SMILES) | IC50 [2] [nM] | ratio of Nav1.7 potency:Nav 1.5 potency [1] |
| --- | --- | --- |
| CCN[C@H](CNc1cc(F)c(S(=O)(=O)Nc2ncc(F)s2)cc1Cl)C[Si](C)(C)C [Ex7-4, (R)-5-chloro-4-((2-(ethylamino)-3-(trimethylsilyl)propyl)amino)-2-fluoro-N-(5-fluorothiazol-2-yl)benzenesulfonamide] | 3 | > 11000 |
| CN[C@H](CNc1cc(F)c(S(=O)(=O)Nc2ncc(F)s2)cc1Cl)C[Si](C)(C)C [Ex2-17, (R)-5-chloro-2-fluoro-N-(5-fluorothiazol-2-yl)-4-((2-(methylamino)-3-(trimethylsilyl)propyl)-amino)benzenesulfonamide] | 14 | > 1929 |
